In the experiment the test system is tau, phosphorylated on the sites Thr212 and Ser214 (AT100). The experiment can be described thus: Tau phosphorylation (AT100) in cortical neurons after Aβ1-42 injury. The class given is cell-based, rat. The note with it: Aβ1-42 injury 72 h; doses above 1 nM. As to the method:
Rat cortical neurons cultured with microglia were cultured as described by Callizot et al. in J Neurosci Res. 2013, 91: 706-716 with modifications to include microglial cells. Pregnant female rats (Rats Wistar; Janvier Labs France) of 15 days of gestation were killed, after a deep anesthesia with CO2, by cervical dislocation. Then, fetuses were collected and immediately placed in ice-cold L15 Leibovitz medium with a 2% penicillin (10,000 U/ml) and streptomycin (10 mg/ml) solution (PS) and 1% bovine serum albumin (BSA). Cortexes were treated for 20 min at 37° C. with a trypsin-EDTA solution at a final concentration of 0.05% trypsin and 0.02% EDTA. The dissociation was stopped by addition of Dulbecco's modified Eagle's medium (DMEM) with 4.5 g/liter of glucose, containing DNAse I grade II (final concentration 0.5 mg/ml) and 10% fetal calf serum (FCS). Cells were mechanically dissociated by three forced passages through the tip of a 10-mL pipette. […] Viable cells were counted in a Neubauer cytometer, using the trypan blue exclusion test. […]
Cortical neurons were intoxicated with A3 solutions (see below) after 11 days of culture. […] This solution was gently agitated for 3 days at 37° C. in the dark and immediately used after being properly diluted in control medium to the concentrations used ([…] of Aβ1-42 preparation containing […] of Aβ oligomers (AβO) measured by WB). […]

In the case of “N-(3-(4-(3-(diisobutylamino)propyl)piperazin-1-yl)propyl)-1H-benzo[d]imidazol-2-amine sesqui-succinate salt [sesqui-succinate salt Form 1]”, the “hyperphosphorylation of Tau (AT100 in MAP-2 neurons)” value was “significantly reduced”.

These data come from patent publication US20230391729A1, “SUCCINATE SALTS OF N-(3-(4-(3-(DIISOBUTYLAMINO)PROPYL)PIPERAZIN-1-YL)PROPYL)-1H-BENZO[D]IMIDAZOL-2-AMINE, PREPARATION THEREOF AND USE OF THE SAME” (ALZPROTECT, priority 2020, published 2023).
